Measured values reported in paper PMC11304383 (Molecular Pharmaceutics, 2024).
≈ marks a conversion by molar mass, not a printed value. Where two headings read alike, the source gives them in different places.

Assays:
[1] = Thermodynamic solubility, shake flask method; type: physicochemical; settings: phosphate buffer 50 mM pH 6.8, 24 h, 37 °C; read-out: thermodynamic solubility of CRT
Protocol: Excess amounts of CRT and CAMs were added to solubility vials (2 mL) containing the buffer. These vials were then subjected to agitation on an orbital shaker for 24 h at 37 °C and 120 rpm. After this incubation period, the pH of the samples was checked and adjusted if necessary just before centrifugation. Centrifugation was carried out at 37 °C, 10,000 rpm, for 10 min, trailed by the collection of the supernatant and its dilution using the mobile phase. The samples were then analyzed by using the HPLC method described below. This experimental procedure was conducted in triplicate (n = 3).
The Shimadzu Prominence UHPLC with a UV detector was used for the analysis. A GraceSmart Brava BDS-C18 column (250 mm × 4.6 mm × 5 μm) was used for chromatographic separation. The mobile phase was given in a gradient manner with 42:50:8% v/v methanol:25 mM phosphate buffer pH 3.0:ACN for 5 min and 50:50% v/v acetonitrile:25 mM phosphate buffer pH 3.0 for 17 min at a flow rate of 1 mL/min.

A549 cells [2] = assay: Cell cycle analysis by flow cytometry (propidium iodide); type: cell-based, human; settings: individual IC50 concentrations, 48 h
Protocol: Exponentially growing cells were detached from T-25 cell culture flasks using trypsin and then transferred to sterile Petri plates. The cells were allowed to attach and grow for approximately 24 h. After the attachment period, different treatments were applied to the cells, and the plates were further incubated for 48 h. The media was removed after 48 h of incubation, and the plates were rinsed two times with phosphate buffer. After that, the cells were trypsinized and centrifuged at 4 °C. After centrifugation, the pellet was fixed in 70% ice-cold ethanol for 30 min at 4 °C. The resulting pellet was resuspended in Dulbecco’s phosphate-buffered saline (PBS) to wash the cells. After another round of centrifugation, the supernatant was removed and the pellet was redispersed in a staining solution consisting RNase, propidium iodide, and NP-40. For 20 min, the cell suspension was incubated in the dark at room temperature. The cells were then analyzed with a BD Accuri C6 flow cytometer (BD Biosciences, San Jose, CA, USA).[42]

[3] = Amorphous solubility, solvent quench method; type: physicochemical; settings: higher in distilled water
Protocol: The amorphous solubility of CRT was measured using the solvent quench method, which employed methanol and HPMC as the solvent and crystallization inhibitor, respectively. […] The detailed amorphous solubility methodology can be found in Shete et al. (2021).[39]

[4] = Oral pharmacokinetic study; type: in vivo, male Wistar rats; settings: single oral dose 15 mg/kg
Protocol: Pharmacokinetic studies were conducted by following the CPCSEA guidelines. MAHE-IAEC (IAEC/KMC/24/2020) approved the study. The study utilized a parallel design, with each group comprising 3 male Wistar rats weighing approximately 200 g, with a variation of ±20 g. Prior to treatment, the rats underwent a 12 h fasting period but were allowed access to water. Treatment A involved administering a dose of 15 mg/kg of CRT, suspended in a 0.5% (w/v) carboxyl methyl cellulose (CMC) aqueous solution. Treatment B consisted of a 15 mg/kg equivalent CRT CAMs suspension prepared in a 0.5% (w/v) CMC vehicle. The animals received 1 mL of the suspension orally via oral gavage. The interested readers are directed to the pharmacokinetic study reported by Yarlagadda et al. (2023) for detailed methodology.[38]

CYP2C9 = tested on: CYP2C9; design: method as in PMID 33394101; settings: 33 adult NSCLC patients; cited from earlier work
CYP3A = tested on: CYP3A; design: method as in PMID 33394101; settings: 33 adult NSCLC patients; cited from earlier work
[5] = design: method as in doi:10.1021/acs.cgd.7b01027; settings: cited from earlier work
A549 cells [6] = assay: SRB (sulforhodamine B) cytotoxicity assay; type: cell-based; settings: Homo sapiens, read-out: IC50 value
Protocol: A cell suspension was made based on cell count, and 5000 cells were seeded per well in a 96-well plate. […] The SRB assay was performed after a 48 h incubation […], and the absorbance at 540 nm was determined using a plate reader.[40]

[7] = design: method as in doi:10.1007/s12247-019-09381-9; settings: cited from earlier work
P-gp = tested on: P-gp; design: method as in doi:10.1016/j.jddst.2022.103431; settings: read-out: IC50 value of NRG for P-gp inhibition; cited from earlier work
[8] = male, Wistar, rat, plasma, n = 3

SMILES	solubility thermodynamic at 24 h [1]	%G1 (percentage of cells in G0/G1 phase) (A549 cells [2])	%G2 (percentage of cells in G2/M phase) (A549 cells [2])	amorphous solubility of CRT, distilled water versus pH 6.8 phosphate buffer [3]	Cmax ([4]; male, Wistar, rat, plasma, po, 15 mg/kg, n = 3, read-out: Cmax of CRT)	MRT [4, 8]	Tmax [4, 8]	half-life [4, 8]	AUC(0-t) ([4]; male, Wistar, rat, plasma, n = 3, 72 h, read-out: AUC0–t of CRT)	Cmax of CRT ([4]; n = 3, 15 mg/kg)	improvement of AUC of S-warfarin by CRT (CYP2C9)	enhancement of AUC of midazolam by CRT versus midazolam alone (CYP3A)	enhancement of Cmax of midazolam by CRT versus midazolam alone (CYP3A)	excess enthalpy of CRT in water [5]	IC50 (A549 cells [6]; A549, 48 h)	glass transition event temperature [7]	IC50 (P-gp)	IC50 (A549 cells [6]; A549, SRB, 48 h incubation)
Cc1cc(Nc2ncc(Cl)c(Nc3ccccc3S(=O)(=O)C(C)C)n2)c(OC(C)C)cc1C1CCNCC1 [CRT, ceritinib]	3.3 µg/mL (≈ 5.91 µM)	47.1%	23.9%	approximately threefold	173 ng/mL	20.2 ± 0.75 h	6 h	22.1 h	3580 ± 218 ng·h/mL	173.26 ± 5.34 ng/mL	56%	5.42 fold	1.82 fold	-0.844 kcal/mol	3.53 µM	–	–	–
C[C@@H]1O[C@@H](O[C@H]2[C@H](Oc3cc(O)c4c(c3)O[C@H](c3ccc(O)cc3)CC4=O)O[C@H](CO)[C@@H](O)[C@@H]2O)[C@H](O)[C@H](O)[C@H]1O [NRG, naringin]	–	–	–	–	–	–	–	–	–	–	–	–	–	–	–	167 °C	2400 µM	162 µM
